Measurements as given in US11524078B2, “Water-soluble macromolecular derivative of Venetoclax” (Delta-Fly Pharma, Inc., priority 2020, dated 2022).

Assays:
[1] = system: human acute myelocytic leukemia cell line OCI-AML-2; assay: Mouse model of human acute myelocytic leukemia (OCI-AML-2), subcutaneous transplant; type: in vivo; conditions: OCI-AML-2 s.c. mice; (II) i.v. weekly x2 at 100-300 mg/kg; (I) oral daily two weeks 100 mg/kg
Description: The effects of the compounds on suppressing tumor growth were compared in mice groups by using mice models which were generated by transplanting a human acute myelocytic leukemia cell line OCI-AML-2 subcutaneously into mice. The mice groups were the following: a control group; groups whose mice received the compound of formula (II) intravenously once every week for two weeks at a dose of 100 mg/kg, 200 mg/kg, or 300 mg/kg; and a group whose mice received the compound of formula (I) orally every day for two weeks at a dose of 100 mg/kg (see FIG. 5(1)).

[2] = human protein; cited from earlier work
[3] = system: human histiocytic lymphoma cell line U937; assay: Mouse model of human histiocytic lymphoma (U937), subcutaneous transplant; type: in vivo; conditions: U937 s.c. mice; (II) i.v. weekly x2 at 200 or 300 mg/kg; (I) oral daily two weeks 100 mg/kg
Description: The effects of the compounds on suppressing tumor growth were compared in three groups by using mice models which were generated by transplanting a human histiocytic lymphoma cell line U937 subcutaneously into mice. The three groups were the following: a control group; a group whose mice received the compound of formula (II) intravenously at a frequency of once a week for two weeks at a dose of 200 mg/kg or 300 mg/kg; and a group whose mice received the compound of formula (I) orally every day for two weeks at a dose of 100 mg/kg.

caspase = assay: Caspase activity of MV4-11 cells; type: cell-based, human
Description: According to the above described Pharmaceutical Interview Form, cytochrome C that flowed out from mitochondria into cytoplasm activates caspase, thereby inducing apoptosis. Therefore, human acute myelocytic leukemia cells MV4-11 were plated on a culture medium and cultured overnight. Then, the compound of formula (I) was added at concentrations of 1 pM, 0.01 nM, 0.1 nM, 1 nM, 0.01 μM, 0.1 μM, and 1 μM; and the compound of formula (II) was added at concentrations of 1 pM, 0.01 nM, 0.1 nM, 1 nM, 0.01 μM, and 0.1 μM. After incubation for 24 hours, the culture medium was collected and caspase activity was examined by a conventional known technique.

cytochrome C = assay: Cytochrome C release from mitochondria into cytoplasm in MV4-11 cells; type: cell-based, human; conditions: (I) 0.1 and 1 μM, (II) 0.01, 0.1 and 1 μM, incubation five hours
Description: In the above described Pharmaceutical Interview Form, “cytochrome C” that flowed out from mitochondria into cytoplasm is described as “pro-apoptotic protein.” Therefore, human acute myelocytic leukemia cells MV4-11 were plated on a culture medium and cultured overnight. Then, the compound of formula (I) was added at concentrations of 0.1 μM and 1 μM, and the compound of formula (II) was added at concentrations of 0.01 μM, 0.1 μM, and 1 μM. After incubation for five hours, a cytoplasm fraction and a mitochondrial fraction were extracted and cytochrome C release was examined.

[4] = Solubility in water of compounds; type: physicochemical; conditions: (I): 10 mg/mL in physiological saline containing 0.5% CMC, sonication, (II): 10 and 20 mg/mL in physiological saline at 40° C. to 50° C.
BAX = BAX expression in cytoplasm and mitochondrial fractions of MV4-11 cells; type: cell-based, human; conditions: (I) 0.1 and 1 μM, (II) 0.01, 0.1 and 1 μM, incubation five hours
Description: Human acute myelocytic leukemia cells MV4-11 were plated on a culture medium and cultured overnight. Then, the compound of formula (I) was added at concentrations of 0.1 μM and 1 μM, and the compound of formula (II) was added at concentrations of 0.01 μM, 0.1 μM, and 1 μM. After incubation for five hours, a cytoplasm fraction and a mitochondrial fraction were extracted and BAX expression was examined.

[5] = system: human lung cancer cell line A549; assay: Cytotoxic effect, human lung cancer cell line A549; conditions: A549, read-out: IC50 (50% inhibition percentage)
Description: (§1) Concentration dependence of the cytotoxic effect of the compound of formula (I) and the compound of formula (II) was examined as described below.

[6] = system: human pancreatic cancer cell line PANC-1; assay: Cytotoxic effect, human pancreatic cancer cell line PANC-1; conditions: PANC-1, read-out: IC50 (50% inhibition percentage)
Description: as §1

[7] = system: human acute myelocytic leukemia cell line MV4-11; assay: Cytotoxic effect, human acute myelocytic leukemia cell line MV4-11; type: cell-based; conditions: Opti-MEM reduced-serum medium used for compound of formula (I), read-out: IC50 (50% inhibition percentage)
Description: as §1

effect on suppressing weight change [1]: suppressed weight change | state of preparation in aqueous vehicle [4]: uniform bright yellow opaque suspension
SMILES: CC1(C)CCC(CN2CCN(c3ccc(C(=O)NS(=O)(=O)c4ccc(NCC5CCOCC5)c([N+](=O)[O-])c4)c(Oc4cnc5[nH]ccc5c4)c3)CC2)=C(c2ccc(Cl)cc2)C1 [compound of formula (I), Venetoclax]
binding percentage to protein [2]: ≥ 99.9% | effect of suppressing tumor growth [3]: no effect of suppressing growth of U937 | caspase activity, concentration dependence (caspase; 1 pM to 1 μM (I), 1 pM to 0.1 μM (II), incubation 24 hours): increased depending on the concentration | caspase activity at 0.1 μM, (I) versus (II) (caspase; concentration in terms of Venetoclax 0.1 μM, 24 hours): exactly the same caspase activity | amount of cytochrome C released from mitochondria into cytoplasm (cytochrome C): increased depending on the concentration | BAX in the cytoplasm fraction (BAX): concentration-dependent decrease of BAX in the cytoplasm fraction | IC50 [5]: 990 nM | IC50 [6]: 990 nM | IC50 [7]: 160 nM
